# Assay results taken from patent US20090274626A1, “TARGETING TNF-alpha CONVERTING ENZYME(TACE)- DEPENDENT GROWTH FACTOR SHEDDING IN CANCER THERAPY” (The Regents of the University of California, priority 2005, published 2009).
# “Also recorded” adds a separate entry of the source.
# How the values were obtained:
# [1] = tested on: S1 cells; assay: S1 cell proliferation with recombinant EGFR ligands; type: cell-based, human; details: recombinant ligand equimolar to EGF (860 μM)
# Protocol: Cell culture All reagents were purchased from SIGMA (St. Louis, Mo.) except where otherwise noted. HMT3522 cells were cultivated on 2D and 3D substrata in H14 medium, a 50:50 mix of DMEM/F12 (UCSF Cell culture Facility, San Francisco, Calif.) supplemented with 5 μg/ml prolactin, 250 ng/ml insulin, 1.4×10^−6 M hydrocortisone, 10^−10 M β-estradiol, 2.6 ng/ml sodium selenite and 10 μg/ml transferrin. S1 cells were additionally supplemented with 10 ng/ml EGF. In various experiments, cells were supplemented with AREG, TACE, TGFα. In all cases, AREG and TGFα were used at the same molar concentration as EGF ([…]).
# Proliferation assays. HMT3522 cells were seeded in 96 well plates and treated (in triplicate) as described in the figure legends. To determine relative growth, 0.1 volumes of WST cell proliferation analysis reagent (Roche, Indianapolis, Ind.) was added to the medium and its formazan metabolite was measured by absorbance at 460 nm.
# [2] = biological target: transmembrane precursor of Amphiregulin (pro-AREG) (human (cloned from T4-2 human breast cell cDNA)) (UniProt P15514); assay: cell-based or functional assay
# [3] = tested on: T4-2 cells; assay: T4-2 cell proliferation with Gefitinib in absence or presence of TGFα; type: cell-based, human; details: Gefitinib 0 nM, 0.3 nM and 3 nM
# Protocol: Control cells were cultured in the absence of TGFα and cells were cultured in the presence of TGFα. Both the control cells and cells grown with TGFα were also cultured with various amounts of Gefitinib at 0 nM, 0.3 nM and 3 nM.
# [4] = tested on: non-small cell lung cancer (NSCLC) patients; details: two large trials, chemotherapy with Gefitinib; cited from earlier work
# [5] = tested on: MAPK; assay: MAPK activation in S1 cells by conditioned medium from T4-2 cells; type: cell-based, human; details: pre-incubation of S1 cells with inhibitor
# Protocol: Western blotting. Cells were lysed in 50 mM Tris.HCl pH 7.5, 150 mM NaCl, 0.5% NP40 supplemented with protease and phosphatase inhibitors (Calbiochem, San Diego, Calif.) and clarified by centrifugation. 50 μg of each sample was fractionated by SDS-PAGE, transferred to nitrocellulose membranes and probed with antibodies against the following proteins: phospho-MAPK, Total MAPK, phospho-p70S6-Kinase, (Cell Signaling Technology, MA). E-cadherin (BD Biosciences, CA) was used as a loading control. Blots were developed using Supersignal West Femto (Pierce, Rockland, Ill.). Images were captured using a Fluor Chem 8900 imager (Alpha Innotech, San Leandro, Calif.).
# [6] = tested on: T4-2 cells; assay: 3D lrECM (Matrigel) culture of T4-2 cells: reversion of malignant phenotype, polarity, colony size; type: cell-based, human
# Protocol: (§1) For 3D lrECM culture, T4-2 cells were seeded at 21000 cells per cm^2 on top of Matrigel, overlaid with H14 medium containing 5% Matrigel (BD Biosciences, San Jose, Calif.), and treated with 80 nM AG1478, 20 μM TAPI-2 or the relevant vehicle controls.
# Silencer™ siRNAs against TACE (Ambion, Austin, Tex.) were also transfected in according to the Reverse Transfection protocol of Invitrogen. siRNAs against the following TACE sense strand sequences were transfected either individually (100 nM) or as a pool (33.3 nM each): […]tt (SEQ ID NO: 2), GCAGCAt[…]tt (SEQ ID NO:3) and […]tt (SEQ ID NO: 4). For 3D culture assays, T4-2 cells were trypsinized post-transfection and plated as single cells in Matrigel. Knockdown was assessed by western blot from a parallel transfection 48 hrs post-transfection. Random siRNA sequence was used as a negative control.
# Indirect immunofluorescence. Colonies were solubilized from […] culture by shaking in PBS/0.05M EDTA on ice for 30 mins, fixed in 4% paraformaldehyde, permeabilized, stained with anti-α6-integrin (Chemicon, Temecula, Calif.) and counterstained with DAPI.
# Quantitation of colony size in the 3D lrECM culture was performed by image analysis. Representative images were captured using a digital camera attached to a phase contrast microscope. The high resolution digital images were then analyzed using NIH Image analysis software and the cross-sectional area of each colony was determined for many colonies. This process was hand-curated to ensure that aggregates of colonies were not measured as a single colony.
# [7] = tested on: T4-2 cells expressing AREGΔTM; assay: 3D culture of T4-2 cells expressing soluble AREG (AREGΔTM): colony size and morphology; type: cell-based, human; details: AG1478-treated AREGΔTM vs proAREG colonies, P<0.0001
# Protocol: as §1
# (§2) Amphotropic retroviruses were generated by transfection (Lipofectamine; Invitrogen, Carlsbad, Calif.) of the Phoenix packaging cell line (a gift of Dr. Gary Nolan, Stanford) with pBM-IRES-Puro or derivatives containing the AREG or TGFα open reading frames. Two million phoenix cells per 6 cm dish were plated the day prior to transfection and transfected with 2 μg of the appropriate retroviral construct. Retrovirus-containing culture medium was harvested after 48 hrs, supplemented with polybrene to 5 μg/ml and added to HMT3522 cells at 30-50% confluence. Pools of stable infectants were selected in 1 μg/ml puromycin.
# (§3) Cloning of pro-AREG and pro-TGFα. The open reading frames of these genes were amplified by PCR from T4-2 cDNA. […]
# (§4) Quantitation of colony size in the 3D lrECM culture was performed by image analysis. […] The high resolution digital images were then analyzed using NIH Image analysis software and the cross-sectional area of each colony was determined for many colonies. This process was hand-curated to ensure that aggregates of colonies were not measured as a single colony.
# [8] = tested on: T4-2 cells expressing TGFαΔTM; assay: 3D culture of T4-2 cells expressing soluble TGFα (TGFαΔTM): colony size and morphology; type: cell-based, human; details: AG1478-treated TGFαΔTM vs proTGFα colonies, P<0.05
# Protocol: as §1, §2, §3, §4
# [9] = tested on: T4-2 cells; assay: Relative proliferation of T4-2 cells with AG 1478 with or without TAPI-2 (sensitization, FIG. 5); type: cell-based, human; details: 0.01 μM AG 1478 alone
# Protocol: FIG. 5. […] T4-2 cells were allowed to adhere to 48 well plates. Drugs were added at the indicated concentrations. Conditions were analyzed in triplicate. For comparison, all data were normalized to the 100%.
# (FIG. 5) In this experiment, T4-2 cells were allowed to adhere to 48 well plates. Drugs, AG 1478 and TAPI-2, were added at various concentrations of 0.001 μM, 0.01 μM, 0.1 μM, 1 μM, 10 μM and 100 μM. Conditions were analyzed in triplicate. For comparison, all data were normalized to the 100%.
# [10] = tested on: T4-2 cells; assay: 3D culture of T4-2 cells in 80 nM AG1478 with various amounts of EGF; type: cell-based, human; details: 80 nM AG1478, four days
# Protocol: It was shown that increasing amounts of the EGFR ligand, EGF, attenuates T4-2 cells response to 80 nM of AG 1478. Cells were cultured for four days in 80 nM AG1478 and various amounts of EGF. Above a threshold EGF concentration between 0.1-1 ng/ml ([…]), the EGFR inhibitor can no longer revert the malignant phenotype. Thus, reversion of T4-2 cells by EGFR inhibition is overcome by the presence of picomolar amounts of EGFR ligand.
# [11] = tested on: NSCLC; details: single agent in NSCLC; cited from earlier work
# [12] = tested on: patients with advanced pancreatic adenocarcinoma; details: cited from earlier work
molecule,measurement,setting,value
TGFα: recombinant EGFR ligand TGFα,proliferation of non-malignant S1 cells in place of EGF,[1],can substitute for EGF to promote proliferation
"TACE/ADAM17 expressed endogenously in human breast cancer cells (T4-2, MCF-7) (from UniProt P78536 215-824) (enzyme)",reduction in AREG shedding from MCF-7 cells after siRNA knockdown of TACE,[2],90%
COc1cc2ncnc(Nc3ccc(F)c(Cl)c3)c2cc1OCCCN1CCOCC1 [Gefitinib],effect of added TGFα on sensitivity of T4-2 cells to Gefitinib (cell proliferation),[3],reduced the effectiveness
same,survival vs chemotherapy alone,[4],no better than chemotherapy alone
same,activation of MAPK in S1 cells by T4-2 conditioned medium,[5],suppressed
COc1cc2ncnc(Nc3cccc(Cl)c3)c2cc1OC [AG1478],colony size (cross-sectional area) vs vehicle,"[6]; 3D culture, four days, p<0.001",significantly smaller than those formed by cells treated with vehicle alone; also recorded: significantly different from controls
same,reversion of the malignant phenotype of T4-2 cells,"[6]; 3D lrECM culture, 80 nM AG1478 or 20 μM TAPI-2 vs vehicle",reversion of the malignant phenotype; also recorded: may be reverted
same,colony size in presence of the EGFR inhibitor,[7],consistently larger than those formed by cells infected with either empty vector or with the membrane-tethered pro-forms
same,colony size in presence of the EGFR inhibitor,[8],consistently larger than those formed by cells infected with either empty vector or with the membrane-tethered pro-forms
same,"reduction in proliferation, EGFR inhibitor alone",[9],no reduction in proliferation
same,threshold EGF concentration above which the EGFR inhibitor can no longer revert the malignant phenotype,[10]; 3D culture,0.1 to 1 ng/mL
same,threshold EGF concentration above which the EGFR inhibitor can no longer revert the malignant phenotype,[10]; molar equivalent,8.6 to 86 pM
C#Cc1cccc(Nc2ncnc3cc(OCCOC)c(OCCOC)cc23)c1 [Erlotinib],increase in median progression-free survival time,[11],two
same,median extension in progression-free survival,[12]; added to gemcitabine,six
same,median increase in overall survival,[12]; added to gemcitabine,14 days
same,survival benefit,[12],statistically significant survival benefit
"AREG: recombinant EGFR ligand Amphiregulin (protein, UniProt P15514 101-187, looked up) Amphiregulin: SVRVEQVVKPPQNKTESENTSDKPKRKKKGGKNGKNRRNRKKKNPCNAEFQNFCIHGECKYIEHLEAVTCKCQQEYFGERCGEKSMK",proliferation of non-malignant S1 cells in place of EGF,[1],can substitute for EGF to promote proliferation
